# Patent publication US20220241223A1, “USE OF DISULFIRAM OR ITS DERIVATIVES FOR THE TREATMENT OF MITOCHONDRIAL DISEASES OR DYSFUNCTION” (Universite D'angers, priority 2019, published 2022)
# Tested on: mitochondrial complex I in MELAS neuronal cybrid cells
# Assay: Complex I enzyme activity in MELAS cybrid cells
# Type: cell-based, human
# Conditions: FIG. 5; various concentrations, especially from 30 to 90 nM; 48 h exposure; low glucose medium (0.5 g/l)
# Description: FIG. 5: Effect of DSF compared to untreated mutant cells (DMSO vehicle) after 48 h exposure on complex I enzyme activity in MELAS neuronal cybrid cells in low glucose medium (0.5 g/l).
# The SH-SY5Y neuronal mutant cybrid cells, carrying the m.3243A>G with 98.6% mutant load responsible for MELAS syndrome, were cultured in standard DMEM high glucose media (4.5 g/L) or in low glucose (0.5 g/L), supplemented with 10% fetal bovine serum, 1% glutamine and 50 μg/ml uridine at 37° C. in presence of 5% CO2 as described elsewhere (Desquiret-Dumas et al. & Geffroy et al.). To optimize drug concentrations, cells were shifted to low glucose-medium 0.5 g/l (to force the cells to rely on OXPHOS rather than glycolysis) supplemented with various concentrations of DSF or of the vehicle (DMSO).
# Complex I enzyme activity was measured at 37° C. on an UVmc2 spectrophotometer (SAFAS) as described (Desquiret-Dumas et al., 2012). For complex I enzyme activity, 0.5 million of cells were sonicated (6 cycles of 5 seconds) then incubated at 37° C. in the reaction medium (KH2PO4 100 mM, pH 7.4, KCN 1 mM, NaN3 2 mM, BSA 1 mg/ml, ubiquinone-1 0.1 mM and DCPIP 0.075 mM). The reaction was started by adding 0.15 mM NADH and the disappearing rate of DCPIP was measured at 600 nm for 2 minutes. The unspecific activity was determined in the presence of rotenone (5 μM).
smiles,measurement,value
"CCN(CC)C(=S)SSC(=S)N(CC)CC [DSF, 1-(diethylthiocarbamoyldisulfanyl)-N,N-diethyl-methanethioamide]",effect on complex I activity,increases complex I activity
